# Like-named read-outs stand apart in the source and are kept apart here.
# How the values were obtained:
# [1] = type: physicochemical; conditions: for Stability in Powder Concentrate (content by LCMSMS): stored at room temperature (21-25° C.)
# Description: At each time period, 0.05 g of powder was dissolved in 10 ml-15 of ethanol, diluted to fall within the analytical range, and injected into the LCMSMS for analysis.
# [2] = Stability of cannabinoid and Vitamin E components of Beverage 1 (AB White) stored at 8° C. and 21-25° C., LCMSMS over 570 days; type: physicochemical; conditions: for Storage time after which slight degradation / significant losses are seen: AB White; for Stability in AB White, 8° C. (content by LCMSMS): beverage stored at 8° C.
# Description: The LCMSMS was calibrated for 0-1000 ng/ml cannabinoids with the same resin material used in the preparation of the concentrates. At each time period, 100 ml of beverage was diluted with 10 ml of methanol and injected into the LCMSMS for analysis.
# [3] = Stability of cannabinoid and Vitamin E components of Beverage 2 (AB Red) stored at 8° C. and 21-25° C., LCMSMS over 570 days; conditions: AB Red
# Description: The LCMSMS was calibrated for 0-50 ng/ml cannabinoids with the same resin material used in the preparation of the concentrates. At each time period, 100 μml of beverage was diluted with 10 ml of methanol and injected into the LCMSMS for analysis.
smiles,measurement,setting,value
"C=C(C)[C@@H]1CCC(C)=C[C@H]1c1c(O)cc(CCCCC)cc1O [CBD, cannabidiol, reference compound]",Chemical stability over the entire period (result in words),"[1]; powder concentrate, room temperature (21-25° C.), 570 days",no significant degradation
same,Stability in Powder Concentrate (content by LCMSMS),[1]; day 0,5.85 mg/g powder
same,Stability in Powder Concentrate (content by LCMSMS),[1]; day 1,5.69 mg/g powder
same,Stability in Powder Concentrate (content by LCMSMS),[1]; day 2,5.76 mg/g powder
same,Stability in Powder Concentrate (content by LCMSMS),[1]; day 3,5.81 mg/g powder
same,Stability in Powder Concentrate (content by LCMSMS),[1]; day 5,5.84 mg/g powder
same,Stability in Powder Concentrate (content by LCMSMS),[1]; day 8,5.91 mg/g powder
same,Stability in Powder Concentrate (content by LCMSMS),[1]; day 9,6.01 mg/g powder
same,Stability in Powder Concentrate (content by LCMSMS),[1]; day 10,5.69 mg/g powder
same,Stability in Powder Concentrate (content by LCMSMS),[1]; day 11,6.00 mg/g powder
same,Stability in Powder Concentrate (content by LCMSMS),[1]; day 12,5.76 mg/g powder
same,Stability in Powder Concentrate (content by LCMSMS),[1]; day 15,5.85 mg/g powder
same,Stability in Powder Concentrate (content by LCMSMS),[1]; day 16,5.97 mg/g powder
same,Stability in Powder Concentrate (content by LCMSMS),[1]; day 17,5.97 mg/g powder
same,Stability in Powder Concentrate (content by LCMSMS),[1]; day 18,6.01 mg/g powder
same,Stability in Powder Concentrate (content by LCMSMS),[1]; day 19,5.74 mg/g powder
same,Stability in Powder Concentrate (content by LCMSMS),[1]; day 22,5.84 mg/g powder
same,Stability in Powder Concentrate (content by LCMSMS),[1]; day 23,6.10 mg/g powder
same,Stability in Powder Concentrate (content by LCMSMS),[1]; day 24,5.89 mg/g powder
same,Stability in Powder Concentrate (content by LCMSMS),[1]; day 25,6.01 mg/g powder
same,Stability in Powder Concentrate (content by LCMSMS),[1]; day 26,6.00 mg/g powder
same,Stability in Powder Concentrate (content by LCMSMS),[1]; day 29,5.97 mg/g powder
same,Stability in Powder Concentrate (content by LCMSMS),[1]; day 30,5.94 mg/g powder
same,Stability in Powder Concentrate (content by LCMSMS),[1]; day 60,5.66 mg/g powder
same,Stability in Powder Concentrate (content by LCMSMS),[1]; day 90,6.00 mg/g powder
same,Stability in Powder Concentrate (content by LCMSMS),[1]; day 120,5.80 mg/g powder
same,Stability in Powder Concentrate (content by LCMSMS),[1]; day 150,5.65 mg/g powder
same,Stability in Powder Concentrate (content by LCMSMS),[1]; day 180,5.93 mg/g powder
same,Stability in Powder Concentrate (content by LCMSMS),[1]; day 210,5.83 mg/g powder
same,Stability in Powder Concentrate (content by LCMSMS),[1]; day 240,5.98 mg/g powder
same,Stability in Powder Concentrate (content by LCMSMS),[1]; day 270,5.72 mg/g powder
same,Stability in Powder Concentrate (content by LCMSMS),[1]; day 300,5.84 mg/g powder
same,Stability in Powder Concentrate (content by LCMSMS),[1]; day 330,6.01 mg/g powder
same,Stability in Powder Concentrate (content by LCMSMS),[1]; day 360,5.97 mg/g powder
same,Stability in Powder Concentrate (content by LCMSMS),[1]; day 390,5.93 mg/g powder
same,Stability in Powder Concentrate (content by LCMSMS),[1]; day 420,5.94 mg/g powder
same,Stability in Powder Concentrate (content by LCMSMS),[1]; day 450,5.65 mg/g powder
same,Stability in Powder Concentrate (content by LCMSMS),[1]; day 480,5.66 mg/g powder
same,Stability in Powder Concentrate (content by LCMSMS),[1]; day 510,6.01 mg/g powder
same,Stability in Powder Concentrate (content by LCMSMS),[1]; day 540,5.81 mg/g powder
same,Stability in Powder Concentrate (content by LCMSMS),[1]; day 570,5.85 mg/g powder
same,Storage time after which slight degradation / significant losses are seen,[2]; stored at 8° C.,> 480 days
same,Storage time after which slight degradation / significant losses are seen,[2]; stored at 21-25° C.,> 390 days
same,"Stability in AB White, 8° C. (content by LCMSMS)",[2]; day 0,28.5 µg/mL
same,"Stability in AB White, 8° C. (content by LCMSMS)",[2]; day 1,27.65 µg/mL
same,"Stability in AB White, 8° C. (content by LCMSMS)",[2]; day 2,27.67 µg/mL
same,"Stability in AB White, 8° C. (content by LCMSMS)",[2]; day 3,27.96 µg/mL
same,"Stability in AB White, 8° C. (content by LCMSMS)",[2]; day 5,28.61 µg/mL
same,"Stability in AB White, 8° C. (content by LCMSMS)",[2]; day 8,28.47 µg/mL
same,"Stability in AB White, 8° C. (content by LCMSMS)",[2]; day 9,28.44 µg/mL
same,"Stability in AB White, 8° C. (content by LCMSMS)",[2]; day 10,27.87 µg/mL
same,"Stability in AB White, 8° C. (content by LCMSMS)",[2]; day 11,28.13 µg/mL
same,"Stability in AB White, 8° C. (content by LCMSMS)",[2]; day 12,28.10 µg/mL
same,"Stability in AB White, 8° C. (content by LCMSMS)",[2]; day 15,27.99 µg/mL
same,"Stability in AB White, 8° C. (content by LCMSMS)",[2]; day 16,28.04 µg/mL
same,"Stability in AB White, 8° C. (content by LCMSMS)",[2]; day 17,27.84 µg/mL
same,"Stability in AB White, 8° C. (content by LCMSMS)",[2]; day 18,27.87 µg/mL
same,"Stability in AB White, 8° C. (content by LCMSMS)",[2]; day 19,28.36 µg/mL
same,"Stability in AB White, 8° C. (content by LCMSMS)",[2]; day 22,28.50 µg/mL
same,"Stability in AB White, 8° C. (content by LCMSMS)",[2]; day 23,27.67 µg/mL
same,"Stability in AB White, 8° C. (content by LCMSMS)",[2]; day 24,28.44 µg/mL
same,"Stability in AB White, 8° C. (content by LCMSMS)",[2]; day 25,27.65 µg/mL
same,"Stability in AB White, 8° C. (content by LCMSMS)",[2]; day 26,27.73 µg/mL
same,"Stability in AB White, 8° C. (content by LCMSMS)",[2]; day 29,28.24 µg/mL
same,"Stability in AB White, 8° C. (content by LCMSMS)",[2]; day 30,27.93 µg/mL
same,"Stability in AB White, 8° C. (content by LCMSMS)",[2]; day 60,27.73 µg/mL
same,"Stability in AB White, 8° C. (content by LCMSMS)",[2]; day 90,27.87 µg/mL
same,"Stability in AB White, 8° C. (content by LCMSMS)",[2]; day 120,27.39 µg/mL
same,"Stability in AB White, 8° C. (content by LCMSMS)",[2]; day 150,28.59 µg/mL
same,"Stability in AB White, 8° C. (content by LCMSMS)",[2]; day 180,27.59 µg/mL
same,"Stability in AB White, 8° C. (content by LCMSMS)",[2]; day 210,27.76 µg/mL
same,"Stability in AB White, 8° C. (content by LCMSMS)",[2]; day 240,27.79 µg/mL
same,"Stability in AB White, 8° C. (content by LCMSMS)",[2]; day 270,28.07 µg/mL
same,"Stability in AB White, 8° C. (content by LCMSMS)",[2]; day 300,27.96 µg/mL
same,"Stability in AB White, 8° C. (content by LCMSMS)",[2]; day 330,27.33 µg/mL
same,"Stability in AB White, 8° C. (content by LCMSMS)",[2]; day 360,27.79 µg/mL
same,"Stability in AB White, 8° C. (content by LCMSMS)",[2]; day 390,27.50 µg/mL
same,"Stability in AB White, 8° C. (content by LCMSMS)",[2]; day 420,27.50 µg/mL
same,"Stability in AB White, 8° C. (content by LCMSMS)",[2]; day 480,27.13 µg/mL
same,"Stability in AB White, 8° C. (content by LCMSMS)",[2]; day 510,26.48 µg/mL
same,"Stability in AB White, 8° C. (content by LCMSMS)",[2]; day 540,26.51 µg/mL
same,"Stability in AB White, 8° C. (content by LCMSMS)",[2]; day 570,26.22 µg/mL
same,Storage time after which slight degradation / significant losses are seen,[3]; stored at 8° C.,> 420 days
same,Storage time after which slight degradation / significant losses are seen,[3]; stored at 21-25° C.,> 390 days

# Reference: patent publication US20240415914A1, “Water Dispersible Cannabinoid Compositions” (priority 2021, published 2024)
